Results from paper PMC11714206, “Massively Parallel Screening of Toll/Interleukin‐1 Receptor (TIR)‐Derived Peptides Reveals Multiple Toll‐Like Receptors (TLRs)‐Targeting Immunomodulatory Peptides” (Advanced Science, 2024).
Each block holds one substance with its values, some of them ahead of it.

Target: T1, MyD88^TIR (Homo sapiens, UniProt Q99836)
T1 construct: MyD88 (residues 148–296); 6xHis; made in house; host or cells: E. coli BL21 (DE3)
Experiment: T‐Surf phage library (P8 and P3) selection against MyD88^TIR, four rounds, NGS read counts
Assay type: binding
Settings: for P8_MyD88 Rank (after) / P8_MyD88 Rank (before): P8 library; for P3_MyD88 Rank (after) / P3_MyD88 Rank (before): P3 library; for Population: 4th round of selection against MyD88 TIR, share of NGS reads
Summary of the method: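 Library of 190 946 TIR‐derived peptides on P8 or P3 was panned on immobilized TIR domain coated at 5 µg mL^−1, BSA‐blocked, 1 h binding at RT, PBS/0.5% Tween‐20 washes, HCl elution, TG1 amplification. Fourth‐round pools were PCR‐barcoded, sequenced (100 bp paired‐end, Phred ≥30), and peptides ranked by read counts.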

[1] = P8_MyD88: rank by count after grouping
[2] = P8_MyD88: rank by count before grouping
[3] = selection against MyD88, rank after grouping
[4] = selection against MyD88, rank before grouping
[5] = selection against MyD88 TIR, rank by count after grouping
[6] = selection against MyD88 TIR, rank by count before grouping
[7] = P3_MyD88: rank by count after grouping
[8] = P3_MyD88: rank by count before grouping
[9] = P8_MyD88 pool: P8 T-Surf phage library
[10] = P8_MyD88: rank by NGS read count after grouping
[11] = P8_MyD88: rank by NGS read count before grouping
[12] = 4R selection against MyD88, rank after grouping
[13] = 4R selection against MyD88, rank before grouping
[14] = P3_MyD88 pool: P3 T-Surf phage library
[15] = selection against MyD88, rank by count after grouping
[16] = selection against MyD88, rank by count before grouping

T1 sequence (Q99836 148-296): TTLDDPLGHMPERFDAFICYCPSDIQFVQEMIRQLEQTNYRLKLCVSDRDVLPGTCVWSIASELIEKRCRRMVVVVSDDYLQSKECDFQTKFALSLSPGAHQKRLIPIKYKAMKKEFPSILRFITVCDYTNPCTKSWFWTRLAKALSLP

Substance: DPQGVDLFYERQVSLL
P8_MyD88 Rank (after) [3]: 567
P8_MyD88 Rank (before) [4]: 2675

Substance: YALTGHKHRYMVQRGV
P3_MyD88 Rank (after) [5]: 193
P3_MyD88 Rank (before) [6]: 1554

Substance: DWVLDYLLPNLERPAG
Rank (after) [1]: 424
Rank (before) [2]: 2396

Substance: FIRYLVWGLRDERLNL
P8_MyD88 Rank (after) [5]: 208
P8_MyD88 Rank (before) [6]: 297

Substance: YTALANSGCHTFRDND
Rank (after) [7]: 397
Rank (before) [8]: 1635

Substance: WILRAIWNSFGIVCI
Rank (after) [1]: 475
Rank (before) [2]: 1653

Substance: PQEQVWFYERQVSLIV
P8_MyD88 Rank (after) [3]: 533
P8_MyD88 Rank (before) [4]: 3500

Substance: HYTDSYFALHELALLL
Rank (after) [1]: 128
Rank (before) [2]: 138
Population [9]: 0.0119%

Substance: YITWFEDFQQILLFWI
Rank (after) [10]: 924
Rank (before) [11]: 2117

Substance: EWIREQLRPALKERMT
P3_MyD88 Rank (after) [12]: 619
P3_MyD88 Rank (before) [13]: 2151

Substance: LGYQCIDWEYFVDIED
P8_MyD88 Rank (after) [12]: 644
P8_MyD88 Rank (before) [13]: 3332

Substance: SSFREGLWRLLELSKN
Population [14]: 0.00349%

Substance: DWGWDYLLPQLEGSAG
Rank (after) [10]: 990
Rank (before) [11]: 2482

Substance: YLKWGYPWFWDRLRYAM
Rank (after) [7]: 97
Rank (before) [8]: 342

Substance: NELVHEWSSKLMSLGV
P3_MyD88 Rank (after) [5]: 287
P3_MyD88 Rank (before) [6]: 3397

Substance: NNFSAFLFEALFENGI
Rank (after) [1]: 181
Rank (before) [2]: 240

Substance: AVEKETDKIQTPPKNA
Rank (after) [7]: 173
Rank (before) [8]: 1939

Substance: DSVCLDRLLYSLHVTE
P8_MyD88 Rank (after) [12]: 582
P8_MyD88 Rank (before) [13]: 3130

Substance: SAAYGDYWVRQIRMIE
Rank (after) [1]: 469
Rank (before) [2]: 3707

Substance: GLSWGPYEWWIDLYDA
Rank (after) [10]: 889
Rank (before) [11]: 2308

Substance: YLKWGYPWFWDRLP
Rank (after) [7]: 142
Rank (before) [8]: 572

Substance: YYLEPIYLRKQSGDFG
P3_MyD88 Rank (after) [5]: 283
P3_MyD88 Rank (before) [6]: 1475

Substance: YLRADEFWTLEKLLTA
P8_MyD88 Rank (after) [12]: 609
P8_MyD88 Rank (before) [13]: 2071

Substance: DHHLDLPRGKAIKQEILG
Population [14]: 0.00495%

Substance: NELVHVWSSKANTWW
P3_MyD88 Rank (after) [12]: 628
P3_MyD88 Rank (before) [13]: 3431

Substance: YIIWFEDIQLIHLLCD
P8_MyD88 Rank (after) [3]: 564
P8_MyD88 Rank (before) [4]: 2108

Substance: LKVENWRQALEQAGKL
P3_MyD88 Rank (after) [5]: 203
P3_MyD88 Rank (before) [6]: 2526

Other lines, results leading:

Rank (after) [1]: 436
Rank (before) [2]: 2831
Substance: DPQDLDWIYERLVSRF

P8_MyD88 Rank (after) [3]: 554
P8_MyD88 Rank (before) [4]: 2981
Substance: DPQELGWFYERPFSQM

P8_MyD88 Rank (after) [5]: 226
P8_MyD88 Rank (before) [6]: 385
Substance: AFSHWALVELLEAIEQ

Rank (after) [7]: 467
Rank (before) [8]: 2470
Substance: LKVEGWRRALEKAGNL

Rank (after) [1]: 459
Rank (before) [2]: 2844
Substance: DPQDLELFYEQLVRPF

P8_MyD88 Rank (after) [12]: 646
P8_MyD88 Rank (before) [13]: 2040
Substance: YLRADDIWVWEKLLYA

Population [14]: 0.00466%
Substance: LVAHEISKKMKIFETI

P3_MyD88 Rank (after) [15]: 696
P3_MyD88 Rank (before) [16]: 1707
Substance: YTALTNSRLHNFRDND

P8_MyD88 Rank (after) [15]: 681
P8_MyD88 Rank (before) [16]: 1297
Substance: FFSGFREQEDFISKRW

P8_MyD88 Rank (after) [5]: 232
P8_MyD88 Rank (before) [6]: 437
Substance: YYDSRWALDELLQILHARELF

Rank (after) [7]: 455
Rank (before) [8]: 3269
Substance: SSVRGGRWGLVELGKK

P3_MyD88 Rank (after) [12]: 654
P3_MyD88 Rank (before) [13]: 3000
Substance: SENMRPARGRWMNWC

P8_MyD88 Rank (after) [15]: 701
P8_MyD88 Rank (before) [16]: 1502
Substance: WALDELRKNLYAIETM

P8_MyD88 Rank (after) [5]: 243
P8_MyD88 Rank (before) [6]: 435
Substance: WRDVLKYIANLSGWDS

Population [14]: 0.00291%
Substance: SSFREGLWRLL*LSKK

P3_MyD88 Rank (after) [3]: 510
P3_MyD88 Rank (before) [4]: 3457
Substance: NRWRNALTAAANLRGG

P8_MyD88 Rank (after) [15]: 712
P8_MyD88 Rank (before) [16]: 2696
Substance: DPQDEDWLYERLGGLF

Rank (after) [7]: 403
Rank (before) [8]: 2415
Substance: LKWGDPYFCSKLRYPM

Rank (after) [10]: 906
Rank (before) [11]: 1733
Substance: YAASPWWFDELVKILE

Rank (after) [1]: 98
Rank (before) [2]: 349
Substance: DPQDLDWFYERLVNLL

P8_MyD88 Rank (after) [5]: 219
P8_MyD88 Rank (before) [6]: 355
Substance: DSLFWDRLLYSLHVT

Rank (after) [1]: 154
Rank (before) [2]: 169
Population [9]: 0.00848%
Substance: DIVAYVMQKLMKHQVF

Rank (after) [1]: 129
Rank (before) [2]: 140
Population [9]: 0.0116%
Substance: AYILNFIKGNVMFEFL
